Tests used:
[1] = target: T1, CPT1 (Mus musculus, UniProt P97742); assay: CPT1 activity in liver of BNX mice after three weeks topical treatment; format: in vivo; details: 3 weeks, placebo set 100%
T1 construct: A small piece of frozen liver (appr. 200 mg) was homogenized in 600 μl of cold sucrose buffer; from tissue; host or cells: liver of BNX mice (mitochondrial enriched fraction)
T1 sequence (P97742 1-773): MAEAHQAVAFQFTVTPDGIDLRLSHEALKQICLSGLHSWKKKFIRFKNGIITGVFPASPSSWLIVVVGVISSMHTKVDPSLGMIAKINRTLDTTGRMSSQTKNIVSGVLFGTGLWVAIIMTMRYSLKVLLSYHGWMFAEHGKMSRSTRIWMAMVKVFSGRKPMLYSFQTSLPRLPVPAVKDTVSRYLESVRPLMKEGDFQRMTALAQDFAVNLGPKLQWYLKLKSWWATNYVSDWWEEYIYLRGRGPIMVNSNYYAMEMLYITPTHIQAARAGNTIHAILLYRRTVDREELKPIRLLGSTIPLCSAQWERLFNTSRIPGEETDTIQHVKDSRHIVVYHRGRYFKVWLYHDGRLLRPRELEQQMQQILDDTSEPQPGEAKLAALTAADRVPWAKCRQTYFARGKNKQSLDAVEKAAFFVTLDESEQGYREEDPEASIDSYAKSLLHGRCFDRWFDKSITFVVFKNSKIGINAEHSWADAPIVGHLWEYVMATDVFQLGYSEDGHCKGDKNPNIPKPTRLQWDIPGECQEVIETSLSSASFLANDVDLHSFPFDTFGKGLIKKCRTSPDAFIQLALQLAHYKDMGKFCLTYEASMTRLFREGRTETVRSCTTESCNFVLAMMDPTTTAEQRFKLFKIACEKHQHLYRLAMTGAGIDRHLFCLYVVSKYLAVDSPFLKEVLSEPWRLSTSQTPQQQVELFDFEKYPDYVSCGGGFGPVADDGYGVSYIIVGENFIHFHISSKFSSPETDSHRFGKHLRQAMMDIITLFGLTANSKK
Protocol: (§1) The psoriasis model described by Wrone-Smith and Nickoloff (1996) was used. 5 mm non-lesional skin biopsies from five psoriatic patients were each split in four pieces and transplanted on 20 immuno-deficient BNX mice, i.e. four groups of five mice each. Psoriasis was induced in all mice by injection with donors super-antigen-activated blood cells. After psoriasis had developed, mice were treated for 3 weeks by applying either placebo-cream, cream containing a corticosteroid (betamethasone), 1% Etomoxir or 30% Etomoxir daily on the skin. The cream containing 30% Etomoxir was removed after 30 minutes while the other creams were left on the skin.
(§2) After the treatment period, liver and blood of the mice were analyzed for their CPT1 activity and GOT/GPT levels. Furthermore, the epidermal thickness, in particular the depth of reti ridges, the number of Ki67 positive cells and the percentage of ULEX-positive cells (this marker stains the upper layers of the epidermis in normal skin and the whole epidermis in psoriatic skin) in the epidermis were determined.
(§3) A small piece of frozen liver (appr. 200 mg) was homogenized in 600 μl of cold sucrose buffer by 8-10 strokes with tight pestle of dounce homogenizer. Homogenate was centrifuged at 700×g for 10 min at 4° C. Supernatant was again centrifuged at 20000×g for 20 min at 4° C. Pellet was resuspended in 1400 μl buffer A and kept on ice for further analysis or stored at −80° C.
160 μl of bidestilled water was added to wells of a 96-well plate. For the standard curve 0 μg, 1 μg, 2 μg, 3 μg, 4 μg and 5 μg of BSA (BSA stock: 1 mg/ml from New England Biolabs) was added in duplicates to the first […]. 1 μl of the liver samples and the blood samples were added in duplicates to the wells. Finally 40 μl dye reagent concentrate (Bio-Rad protein assay) was added and mixed by pipetting up and down. After 5 to 30 min OD at 595 was measured versus reagent blank (0 μg BSA). For the calibration curve the OD was plotted against the concentration of BSA and total protein concentration of the liver samples was calculated in μg/μl.
20 μg of total protein of each liver sample and 300 μg of total protein of each plasma sample were added in 1.5 ml Eppendorf tubes (safe lock) and filled up to 100 μl with buffer A (all in duplicates). Background control was buffer A only. The tubes were preincubated for exactly 5 min at 30° C. prior to the addition of 105 μl of reaction mix. Again samples were incubated for exactly 5 min at 30° C. Reactions were stopped by adding 800 μl of 6% perchloric acid and stored on ice. […] Finally, either 100 μl (liver samples) or 150 μl (plasma samples) of the butanol phase were mixed with 1 ml Microscint0 in a 24 well-plate and cpm values were measured with the scintillation counter from Canberra Packard. […]

[2] = test system: transplanted human psoriasis skin; assay: Psoriasis model, ULEX staining (keratinocyte differentiation); format: in vivo, BNX mice; details: 3 weeks, placebo 55±19%
Protocol: as §1, §2
(§4) Histological stainings are performed on cryo-preserved tissues. Diagonal cross sections (8μm) are cut (see FIG. 20), covering all skin-layers (located at the top layer are the stratum corneus and epidermis of the transplanted human biopsy and at the bottom the murine tissue is located, forming a base for the transplanted human skin).
Sections are stained with biotinylated Europaeus Agglutinin 1 and evaluated at a microscopic magnification of 200×. Two representative sections are evaluated. The thickness of both the ULEX positive cell-layer (distribution of ULEX) as well as the ULEX negative layer of the total section is measured using a microscopic ocular with intergraded graduation-lines (ruler). From this the average ratio of ULEX positive differentiation is calculated (indicated as percentage of epidermis positive for ULUX).

[3] = target: T1, CPT1; assay: Inhibition of CPT1 activity by the salt of Etomoxir in vitro, mitochondrial enriched fractions of liver; format: biochemical, BNX mice
Protocol: as §3
(§5) 2 μl of a 100× stock of Etomoxir-salt (0; 0.1; 1.0 and 10 mM) dissolved in DMSO were added in 1.5 ml Eppendorf tubes in duplicates. 2× activation mix was premixed on ice with either 15 μg of total protein of each liver sample or 300 μg of total protein of each plasma sample (final volume per reaction was 98 μl). 98 μl of this mix was added to each tube containing the 2 μl of inhibitor and tubes were left at 30° C. for exactly 30 min. […] Finally, either 150 μl of the butanol phase were mixed with 1 ml Microscint0 in a 24 well-plate and cpm values were measured with the scintillation counter from Canberra Packard. P values were calculated with the t-test of the SigmaPlot 2001 software.
(§6) To determine the sensitivity of the CPT1 activity in response to Etomoxir, cell pellet samples were pooled and treated with increasing amounts of Etomoxir. […] 85% of the measured activity in the blood cells was Etomoxir insensitive and therefore the relevance of this assay is questionable.

[4] = test system: transplanted human psoriasis skin; assay: Psoriasis model, Ki-67 staining (keratinocyte proliferation); format: in vivo, BNX mice; details: 3 weeks
Protocol: as §1, §2, §4
Sections are stained with mu-∝Hu monoclonal Ab and evaluated at a microscopic magnification of 400×. Two representative sections are evaluated. The total number of positive cells are counted of the total section and indicated per unit-length. A unit-length is a microscopic view (of a part of the section) at a magnification of 400× (see FIG. 20). Per section several unit-lengths are counted (minimum of 8). From this the average number of Ki-67 positive cells per unit-length is calculated.

[5] = test system: transplanted human psoriasis skin; assay: Psoriasis model, hematoxyline staining (epidermal thickness); format: in vivo, BNX mice; details: 3 weeks, placebo 138±24 μm; for Epidermal thickness: three mice
Protocol: as §1, §2, §4
Sections are stained with hematoxyline and evaluated at a microscopic magnification of 200×. Two sections taken round the middle of the biopsy are evaluated. Thickness measurements are performed of the total section using a microscopic ocular with intergraded graduation-lines (ruler). From this, the average epidermal thickness measurements for ridges and the average of the total epidermis (mean of ridges and inter-ridges) are calculated in μm (taken into account magnification factor).

[6] = Animal experiment, deaths during topical treatment; format: in vivo, BNX mice; details: 30% Etomoxir cream left on the skin; probably because they licked off the cream
Protocol: as §1, with “The cream containing 30% Etomoxir was removed after 30 minutes while the other creams were left on the skin.” left out

[7] = test system: CPT1; assay: Inhibition of CPT1 activity by the salt of Etomoxir in vitro, pooled blood cell extract; format: biochemical, BNX mice
Protocol: 500 μl of total blood cells were frozen and drawn three tines to break up the cells. Samples were diluted by adding 500 μl buffer A and then centrifuged at 20000×g for 20 min at 4° C. Solid Pellets were resuspended in 200 μl buffer A and kept on ice for further analysis or stored at −80° C.
as §5, with “min. Then 105 μl of reaction mix were added to start the CPT1 reaction. Again samples were incubated for exactly 5 min at 30° C.” for “min.”
as §6

[8] = test system: CPT1; assay: CPT1 activity in total blood cells of BNX mice after three weeks topical treatment; format: in vivo; details: 3 weeks
Protocol: as §1
as §2, with “determined. […]” for “determined.”
160 μl of bidestilled water was added to wells of a 96-well plate. […] After 5 to 30 min OD at 595 was measured versus reagent blank (0 μg BSA). For the calibration curve the OD was plotted against the concentration of BSA and total protein concentration of the liver samples was calculated in μg/μl. […]

SMILES	CPT1 activity in liver compared to the placebo group ([1]; 1% Etomoxir cream daily)	CPT1 activity in liver compared to the placebo group ([1]; 30% Etomoxir cream daily, excluding liver of dead animals)	CPT1 activity in liver compared to the placebo group ([1]; 30% Etomoxir cream daily, including the two dead animals)	Percentage of ULEX-positive cells in the epidermis (differentiation rate) ([2]; 1% Etomoxir cream)	Percentage of ULEX-positive cells in the epidermis (differentiation rate) ([2]; 30% Etomoxir cream)	Sensitivity of CPT1 activity measured in liver to Etomoxir [3]	Number of Ki67 positive cells as compared to the placebo group ([4]; 1% Etomoxir cream)	Number of Ki67 positive cells as compared to the placebo group ([4]; 30% Etomoxir cream)	Epidermal thickness ([5]; 1% Etomoxir cream daily)	Epidermal thickness ([5]; 30% Etomoxir cream daily (removed after 30 minutes))	Deaths of animals [6]	Reduction of CPT1 activity in pooled blood cell pellet samples ([7]; increasing amounts of Etomoxir (salt), activity without Etomoxir = 100%)	Part of the measured CPT1 activity in blood cells that is Etomoxir insensitive ([7]; pooled cell pellet samples)	CPT1 activity in blood cell pellets versus placebo group ([8]; 1% Etomoxir cream daily, p value 0.01)	CPT1 activity in blood cell pellets versus placebo group ([8]; 30% Etomoxir cream daily, p value>0.05)	CPT1 activity in liver compared to the placebo group ([1]; corticosteroid (betamethasone) cream daily)	Percentage of ULEX-positive cells in the epidermis ([2]; corticosteroid cream daily)	Number of Ki67 positive cells ([4]; corticosteroid cream daily, placebo 55±37)	Average epidermal thickness ([5]; corticosteroid cream daily)
CCOC(=O)C1(CCCCCCOc2ccc(Cl)cc2)CO1 (stereo not shown) [Etomoxir, 2-(6-(4-chlorophenoxy)hexyl)oxirane-2-carboxylic acid ethyl ester]	73%	59%	40%	17±11%	18±8%	highly Etomoxir sensitive	significant decrease	significant decrease	88±10 μm	69±4 μm	two out of five animals died	~15%	~85%	significantly higher	not significantly different	–	–	–	–
C[C@H]1C[C@H]2[C@@H]3CCC4=CC(=O)C=C[C@]4(C)[C@@]3(F)[C@@H](O)C[C@]2(C)[C@@]1(O)C(=O)CO [corticosteroid, betamethasone]	–	–	–	–	–	–	–	–	–	–	–	–	–	–	–	83%	24±7%	10±6 positive cells/unit-length	81±9 μm

— patent US7528168B2, “Inhibitors of the fatty acid oxidation for the prophylaxis and/or the treatment of chronic and/or atopic skin diseases” (priority 2002, dated 2009)
